From patent US20070254950A1, “Oculoselective Drugs and Prodrugs” (Othera Pharmaceuticals, Inc., priority 2004, published 2007) come the findings set out here.

For data set [1], the system named is albino rabbits. Put plainly: Evaluation of ocular irritation. It is filed as in vivo, rabbit. The procedure:
Thirty albino rabbits were randomly divided into five groups. Each rabbit was dosed in the conjunctival sac of the right eye topically every ten minutes for one hour (six doses) with 50 μL of 0.0%, 0.3%, 0.5%, 1.0% and 2% of test compound, in 0.9% saline solution. The treated eye of each rabbit was examined for indications of ocular irritation, including swelling, discharge, redness, iritis of conjunctiva, eyelid, iris as well as opacity and involvement of the cornea. Individual scores were added to determine the degree of slight, moderate or severe irritation. Ocular observations were made before the treatment, one hour after the first and sixth instillation and then 1, 2, 3, 4 and 7 days, using a slit lamp.

Data set [2] in a line: Ocular bioavailability (aqueous humor levels by HPLC). To be noted: single instillation into conjunctival sac. Format: in vivo. As for the experimental part: Three rabbits were used per time point. The […] test substance was administered in a single instillation using a micropipette into the conjunctival sac of the right and the left eyes. The rabbits were anesthetized with an intramuscular injection of Imalgène® 1000 (ketamine 32 mg/kg), and Rompun® (xylasine 7.5 mg/kg). They were then desanguinated by cardiac puncture and thereafter euthanized by an overdose of pentobarbital. Immediately after death, the eyes were micro-dissected to obtain: cornea (C), aqueous humor (AH), and iris-ciliary body (ICB). All samples were stored at −80° C. Only aqueous humor (AH) samples were analyzed by HPLC.

In data set [3] the test system is albino rabbits. Put plainly: Corneal anesthesia measurements (Cochet's esthesiometer). It is filed as in vivo, rabbit. As for the experimental part:
The effect of a 50 μl single instillation of 0.3%, 0.5%, 1.0% and 2.0% solution of compound 7 on corneal anesthesia, after a single instillation in the conjunctival sac of the right eyes of albino rabbits (N=5) was measured using a Cochet's esthesiometer (nylon thread: 0.12 mm diameter, 10 mm long). Corneal anesthesia was evaluated by the number of corneal mechanical stimuli necessary to induce a blinking reflex. The effect of drug solutions was compared with sterile 0.9% NaCl treated animals (control group) and 0.4% oxybuprocaine (Novesine®).

Data set [4] in a line: Accelerated stability test of 0.25% solutions in acetate buffer, HPLC. Format: physicochemical. As to conditions: for projected shelf-life of eye drop formulation: at room temperature, projected from the accelerated test. The procedure: An accelerated stability test was conducted on 0.25% solutions of compounds 6, 7, and 8 (Example 2) at 40° C. for 1, 2, 3, 4, 8 and 12 weeks and monitored for the disappearance of the prodrugs and appearance of the parent compound by HPLC analysis. The parent compound (referred to hereinafter as compound 4) has the formula: [drawing 47]
The respective compounds were dissolved in an acetate buffer, pH 3.5 (0.018% sodium acetate, 0.135% acetic acid, 0.9% sodium chloride in water for injection) to obtain 0.25% solution. The stability of the compounds was determined at 40° C. for 1, 2, 3, 4, 8, and 12 weeks. The concentration of the parent compound as well as the concentrations of the prodrug compounds 6, 7, and 8 at each time point by HPLC method.

Data set [5] addresses Human recombinant adrenergic beta-1 (Homo sapiens, UniProt P08588). Kind of data set: Human recombinant adrenergic beta-1 radioligand binding assay ([125I]Cyanopindolol). To be noted: [125I]Cyanopindolol radioligand; read-out: Binding efficacy IC50. As for the experimental part:
Human recombinant adrenergic beta-1 Assays (Radioligand Binding) were conducted according to the procedure described by Feve, B., et al., Proc. Natl. Acad. Sci. USA, 91, 5677, 1994 using [[^125I]]Cyanopindolol as a radioligand. The results are expressed in IC50 (nM). (Table B)

SMILES strings stand for the structures.

Sequence of Human recombinant adrenergic beta-1 (P08588 whole entry): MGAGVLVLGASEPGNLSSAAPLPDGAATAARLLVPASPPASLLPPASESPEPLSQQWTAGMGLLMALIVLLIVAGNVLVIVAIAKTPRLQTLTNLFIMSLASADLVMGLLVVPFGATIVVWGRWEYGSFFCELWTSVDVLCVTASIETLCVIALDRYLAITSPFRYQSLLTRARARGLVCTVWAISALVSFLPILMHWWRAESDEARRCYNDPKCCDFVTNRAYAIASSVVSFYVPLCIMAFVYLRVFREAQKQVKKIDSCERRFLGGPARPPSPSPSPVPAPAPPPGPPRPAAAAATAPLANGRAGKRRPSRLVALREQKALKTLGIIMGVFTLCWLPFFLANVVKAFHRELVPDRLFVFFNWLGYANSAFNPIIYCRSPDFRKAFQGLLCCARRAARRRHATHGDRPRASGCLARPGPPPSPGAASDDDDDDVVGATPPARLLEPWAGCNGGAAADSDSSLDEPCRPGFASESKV

As to `Cc1cc(O)c(O)cc1C(=O)OCC(CNC(C)(C)CNC(=O)C1CCOC1)OC(=O)C(C)(C)C` (stereo not shown) [Compound 6, reference compound], the ocular irritation result in data set [1] (at 1% concentration) is given as “moderate irritation”. In data set [2], the “level of the prodrug itself in aqueous humor” value is reported as “below the detection limit”. The corneal sensitivity loss entry in data set [3] (at 1%) is recorded as “complete corneal sensitivity loss”. For the same compound, in data set [4], the “projected shelf-life of eye drop formulation” value (shortened to “projected shelf-life”) was found to be 2.6 months.

For `Cc1cc(O)c(O)cc1C(=O)OCC(CNC(C)(C)CNC(=O)C1CCOC1)OC(=O)C1(C)CC1` (stereo not shown) [Compound 7, 4,5-Dihydroxy-2-methyl-benzoic acid 3-{1,1-dimethyl-2-[(tetrahydro-furan-3-carbonyl)-amino]-ethylamino}-2-(1-methyl-cyclopropanecarbonyloxy)-propyl ester], the ocular irritation result in data set [1] (topical, six times every ten minutes at 0.3%, 0.5%, 1.0% and 2.0%, right conjunctival sac, vs 0.9% saline control) is recorded as “no ocular irritation”. In data set [2], the “level of the prodrug itself in aqueous humor” value is recorded as “also present in aqueous humor”. Moreover, the “corneal sensitivity (local anesthetic activity)” value in data set [3] (single 50 μl instillation of 0.3%, 0.5%, 1.0% and 2.0% solution, compared to 0.4% oxybuprocaine) is “no corneal sensitivity (local anesthetic activity)”. Moreover, in data set [4] (0.25% solution, 40° C., pH 3.5, up to 12 weeks), the “relative stability (percent degradation time course, FIG. 1)” value is listed as “most stable”. Moreover, the “projected shelf-life” value in data set [4] is “at least 18 months”.

Consider `Cc1cc(O)c(O)cc1C(=O)OCC(CNC(C)(C)CNC(=O)C1CCOC1)OC(=O)C1CC1(C)C` (stereo not shown) [Compound 8, 4,5-dihydroxy-2-methyl-benzoic acid 2-(2,2-dimethyl-cyclopropanecarbonyloxy)-3-{1,1-dimethyl-2-[(tetrahydro-furan-3-carbonyl)-amino]-ethylamino}-propyl ester], for which, in data set [4], the “projected shelf-life” value is on record as 7.9 months.

Consider `Cc1cc(O)c(O)cc1C(=O)OC[C@@H](O)CNC(C)(C)CO` [Compound 15, (S)-4,5-dihydroxy-2-methyl-benzoic acid 2-hydroxy-3-(2-hydroxy-1,1-dimethyl-ethylamino)-propyl ester], for which the half-maximal inhibitory concentration (IC50) in data set [5] was 39 nM.

Consider `Cc1cc(O)c(O)cc1C(=O)OC[C@@H](O)CNC(C)(C)COC(=O)C(C)(C)C` [Compound 17, (S)-4,5-bis-dihydroxy-2-methyl-benzoic acid 3-[2-(2,2-dimethyl-propionyloxy)-1,1-dimethyl-ethylamino]-2-hydroxy-propyl ester], for which, in data set [5], the concentration for half-maximal inhibition (IC50) came to 12 nM.

On to `Cc1cc(O)c(O)cc1C(=O)OC[C@@H](O)CNC(C)(C)COC(=O)C1CCOC1` (stereo partly drawn) [Compound 19, (S)-Tetrahydro-furan-3-carboxylic acid 2-[3-(4,5-dihydroxy-2-methyl-benzoyloxy)-2-hydroxy-propylamino]-2-methyl-propyl ester], for which the IC50 in data set [5] amounted to 6.4 nM.

The term IC50 denotes the concentration needed to halve the response being measured.
